pIC50: −log10 of the molar value.
Columns and labels:
5-HT4 receptor = target: T1, 5-HT4 receptor (Cavia porcellus, UniProt O70528); test: Test Example 1: Serotonin 4 (5-HT4) receptor binding assay, [3H]-GR113808, guinea pig striatum membranes (Table 96); conditions: Guinea pig 5-HT4 receptor binding assay, [3H]-GR113808, striatum membranes; mean value of each group
T1 construct: striatum was isolated which was cryopreserved at −80° C. until use; from tissue; host or cells: guinea pig (Slc-Hartley) striatum membranes

[1] = target: T2, Human 5-HT4 receptor (5-HT4b) (Homo sapiens, UniProt Q13639); test: Test Example 3: Human 5-HT4 receptor binding assay, membranes of CHO-K1 cells stably expressing 5-HT4b receptors (Table 99); conditions: mean value of each group
T2 construct: expressed in transfected cells; membrane preparation
Method in brief: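 Radioligand displacement: [3H]-GR113808 (0.1 nM) bound to CHO-K1 5-HT4b membranes for 30 min at 37 °C in Hepes buffer (50 mM, pH 7.4). Specific binding is total minus that with 30 μM serotonin; filter-bound radioactivity counted, IC50 derived from percent inhibition.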

[2] = test system: scopolamine-induced cognitive impairment; test: Example 5: Y-maze test, scopolamine-induced cognitive impairment, single-agent administration (Table 101); assay type: in vivo, ddY mouse; conditions: p.o., scopolamine-treated, # = P<0.05 vs scopolamine group
Source text: Thus, scopolamine-induced cognitive impairment model, one of the AD-like model, has been used to predict pharmacodynamic signals of putative procognitive compounds, utilizing the acetylcholinesterase inhibitor donepezil for illustration (See, Citations 1 and 2). The present inventors investigated the effect of each compound on reversal of scopolamine-induced deficits in performance of Y-maze test in mice, and they also investigated adjunctive effect of compounds with donepezil on reversal of deficits induced by scopolamine and MK801 in mice.
Used animal: ddY mouse (SLC)
In the experiments, the mice were grouped in the same way using Stat Preclinica (Version 1.03295; Takumi Information Technology Inc.). The selected mice were divided into 5 to 7 groups of 7 to 12 mice using the “completely randomization design by the single variable” program (Analytical program version 1.0.7), with body weight on the testing day. After grouping, p values for Bartlett's test and ANOVA across all groups were greater than 0.2, indicating no significant difference in this parameter among the groups.
The required amount of each compound was weighed and put into a glass homogenizer. […]
The required amount of scopolamine and MK801 were weighed, and saline was added to it to give 0.3 mg/mL and 0.015 mg/mL solution, respectively.
90 Min before the test, the mice were orally administered each compound, donepezil, and vehicle (0.5% methyl cellulose, 10 mL/kg). After 60 min, memory impairment was induced by administering scopolamine (0.6 mg/kg, s.c.) with (co-administration) or without (mono-administration) MK801 (0.03 mg/kg, s.c.). The control group received saline (2 mL/kg, s.c.) rather than scopolamine and MK801.
The Y-maze used herein is a three-arm maze with equal angles between all arms. The mazefloor and walls were constructed from black acrylic resin. The mice were initially placed within one arm, and the sequence and number of arm entries were recorded manually for each mouse over an 8-min period.
Data were processed and analyzed with Microsoft® Office Excel 2003. The alternation behavior was defined as entries into all three arms on consecutive occasions. The percent alternation behavior in each animal was calculated using the following formula, and rounded to one decimal place.
Alternation behavior(%)=[actual alternation/(total arm entries−2)]×100
Restoration ratio of alternation behavior (%) in each animal was calculated using the following formula, and rounded to one decimal place.
Restoration ratio of alternation behavior in each animal (%)=y Alternation behavior in each animal (%)=x Mean of alternation behavior in vehicle-treated group (group No. 1) (%)=A Mean of alternation behavior in scopolamine-treated group (group No. 2) (%)=B
Data were expressed as the mean of the percent alternation behavior, the number of total arm entries and the restoration ratio of alternation behavior.
Values of Y-maze tests are expressed as mean of alternation behavior (n=7−12).
Alternation behaviors in the scopolamine-treated groups were compared to those in the control groups using Wilcoxon rank sum test (Stat preclinical; Version 1.03295; Takumi Information Technology Inc.) with a two-sided significance level of 0.05.
Restoration of alternation behavior was analyzed using Stat Preclinica. Alternation behaviors in the vehicle-treated group were compared to those in the test substance-treated groups using non-parametric Dunnett multiple comparison test (Analytical program version 1.0.2) with a two-sided significance level of 0.05.

T2 sequence (Q13639 whole entry): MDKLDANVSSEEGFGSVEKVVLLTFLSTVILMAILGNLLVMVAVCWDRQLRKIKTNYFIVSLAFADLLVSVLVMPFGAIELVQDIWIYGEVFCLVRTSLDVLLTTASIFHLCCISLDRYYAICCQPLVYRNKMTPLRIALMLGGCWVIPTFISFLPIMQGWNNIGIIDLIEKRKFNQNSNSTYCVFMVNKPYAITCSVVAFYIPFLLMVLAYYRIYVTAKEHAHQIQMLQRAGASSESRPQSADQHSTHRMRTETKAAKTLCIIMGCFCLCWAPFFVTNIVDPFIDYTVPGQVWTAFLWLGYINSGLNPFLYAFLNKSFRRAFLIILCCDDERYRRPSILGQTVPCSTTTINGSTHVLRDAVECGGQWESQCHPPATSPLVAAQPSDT
T1 sequence (O70528 whole entry): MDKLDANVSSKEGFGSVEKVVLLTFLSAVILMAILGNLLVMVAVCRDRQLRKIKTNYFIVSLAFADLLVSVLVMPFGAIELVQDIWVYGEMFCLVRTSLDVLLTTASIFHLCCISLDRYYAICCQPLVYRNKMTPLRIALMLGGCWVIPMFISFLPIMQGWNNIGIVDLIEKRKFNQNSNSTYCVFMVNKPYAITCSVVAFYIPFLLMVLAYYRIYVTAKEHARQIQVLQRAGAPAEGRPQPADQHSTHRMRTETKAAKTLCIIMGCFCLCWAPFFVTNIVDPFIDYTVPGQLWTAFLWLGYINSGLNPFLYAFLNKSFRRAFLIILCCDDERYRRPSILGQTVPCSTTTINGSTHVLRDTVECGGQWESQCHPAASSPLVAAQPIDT

SMILES	pIC50 (5-HT4 receptor)	pIC50 [1]	Alternation behavior (%) ([2]; compound 1 mg/kg)	Alternation behavior (%) ([2]; compound 3 mg/kg)	Alternation behavior (%) ([2]; compound 10 mg/kg)
CC(=O)N1CCC(N2CCC(c3nc(-n4nc(C(C)C)c5cccc(F)c54)no3)CC2)CC1.Cl [Example 232, 1-(4-{3-[7-fluoro-3-(propan-2-yl)-1H-indazol-1-yl]-1,2,4-oxadiazol-5-yl}-1,4′-bipiperidin-1′-yl)ethanone hydrochloride]	> 7.70	> 7.70	66.3^# %	63.0^# %	53.6
CC(C)c1nn(-c2noc(C3CCN(C4CCN(C(=O)CO)CC4)CC3)n2)c2c(F)cccc12 [Example 242, 1-(4-{3-[7-fluoro-3-(propan-2-yl)-1H-indazol-1-yl]-1,2,4-oxadiazol-5-yl}-1,4′-bipiperidin-1′-yl)-2-hydroxyethanone]	> 7.70	> 7.70	63.4^# %	62.9^# %	57.5

From patent US20140057895A1, “INDAZOLE- AND PYRROLOPYRIDINE-DERIVATIVE AND PHARMACEUTICAL USE THEREOF” (priority 2011, published 2014)
